Test: gradient 5% acetonitrile 3 min, to 50% in 2 min, to 85% in 15 min, held 3 min, 100 µL/min
Details: column: Zorbax Extend-C18 2.1 x 50 mm; eluents: water / acetonitrile, 0.1% formic acid
Method in brief: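 Using water and acetonitrile that each contained 0.1% formic acid, mixtures of ~100 pure standards were separated at 100 μL/min on a Zorbax Extend-C18 column (2.1 × 50 mm, 1.8 μm). The HPLC fed a quadrupole time-of-flight mass spectrometer working in positive and negative ionization mode, with dead and dwell volumes of 40 μL and 900 μL. Data were acquired over 3 months. Retention time was read from computationally picked adduct peaks after manual inspection of each.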

Compound | RP-LC retention time [s]
O=c1ccc(-c2cccs2)nn1CCNS(=O)(=O)c1ccccc1C(F)(F)F | 779
O=C(NCc1ccc(F)cc1Cl)C1CCCN(c2ncnc3nn(-c4ccc(F)cc4)cc23)C1 (stereo unspecified) | 723
CC1CCCCN1CCNC(=O)c1ccc(-c2ccnc(N3CCCC3)n2)cc1 (stereo unspecified) | 1230
COc1ccc(-c2nnc(COc3cccc(NC(=O)CNC(=O)Cc4ccccc4)c3)o2)cc1 | 816
O=C(NC1CCCN(c2cc(-c3ccccc3)[nH]n2)C1)c1ccc2[nH]ccc2c1 (stereo unspecified) | 729
Cc1nc(NCCNC(=O)c2ccc(Br)o2)cc(-n2cccn2)n1 | 673
COc1cc2nc(C(=O)N3CCCCC3)cc(Nc3cccc(C(F)(F)F)c3)c2cc1OC | 752
Cc1cc(C)cc(NC(=O)C2CC(=O)N(CCc3c[nH]c4ccc(F)cc34)C2)c1 (stereo unspecified) | 889
O=C(Cn1nc(N2CCOCC2)c2ccccc2c1=O)Nc1ccc(Cl)cc1F | 866
O=C(NCc1ccco1)C1CCN(c2cnc3nccnc3c2)CC1 | 629
Cc1cc(=O)n(CC(=O)N2CCN(c3ccc(F)cc3)CC2)c(-c2ccc(F)cc2)n1 | 1010
CCN1C(=O)c2ccccc2Oc2ccc(C(=O)NCc3ccccc3)cc21 | 912
COCCN1C(=O)c2cc(-c3ccc(OC)cc3)nn2CC1(C)C(=O)NCc1ccccc1OC (stereo unspecified) | 853
O=C(Nc1ccc(F)cc1F)N1CCC(OC2CCN(Cc3ccccc3)CC2)CC1 | 656
COc1ccc(NC(=O)c2nnc(CSCC(=O)NCCc3c[nH]c4ccccc34)s2)cc1 | 859
Cn1c(CC2CCN(C(=O)C3CC(=O)N(C4CCCCCC4)C3)C2)nc2cccnc21 (stereo unspecified) | 599
O=C(CSc1ccc(-n2ccnc2)nn1)Nc1ccc(OC(F)(F)F)cc1 | 618
CCCn1nnc(NCc2ccc(-c3cc(Cl)cc(Cl)c3)o2)n1 | 1210
CCn1c(=O)c(N2CCC(C(=O)NCCCN3CCCC3=O)CC2)nc2ccccc21 | 643
Cc1ccc(-c2ncc(NC(=O)c3ccc(Cl)s3)cn2)cc1 | 1140
Cc1nnc2n1CCC(N(C)S(=O)(=O)c1ccccc1F)CC2 (stereo unspecified) | 634
Cc1ccc(-c2nnc(Cc3nc(-c4ccccc4Cl)no3)o2)cc1C | 1230

Compound | RP-LC retention time [s]
CCc1cccc(NC(=O)C2CCN(S(=O)(=O)c3cc(C(=O)N4CCCC4)n(C)c3)CC2)c1 | 872
O=C1Cc2cc(NC(=O)NCCCc3ccccc3)ccc2N1 | 657
CCCS(=O)(=O)N1CCC[C@H]1c1nc(-c2ccc(F)cc2)n[nH]1 | 740
COc1ccc(NC(=O)C2CCCN(c3cnc4nccnc4c3)C2)cc1 (stereo unspecified) | 698
Fc1ccc(-c2csc(Nc3ccc(Br)cn3)n2)cc1 | 1230
CC1(C)C(=O)NCCN1C(=O)c1cccc(Cl)c1 | 637
CC(NC(=O)Cc1ccccc1F)C(=O)Nc1nc2ccccc2[nH]1 (stereo unspecified) | 638
COc1cc(OC)cc(C(=O)N2CCC3(C2)C(=O)Nc2ccccc23)c1 (stereo unspecified) | 707
CCCN(CC(=O)N(Cc1ccco1)CC1CCCO1)C(=O)c1ccc2c(c1)OCO2 (stereo unspecified) | 770
CCOC(=O)C1CCN(S(=O)(=O)c2cc(-c3nc(C(C)(C)C)cs3)cs2)CC1 | 1310
O=C(CCCc1ccccc1)N1CCN(c2cc(-c3cccs3)[nH]n2)CC1 | 860
COc1cccc(C(O)CN2CCN(c3ccccc3C)CC2)c1 (stereo unspecified) | 691
COc1ccc(N2C=C(C#N)S(=O)(=O)c3ccc(Cl)cc32)cc1OC | 916
COC(=O)c1ccc(C2CC(=O)NC3=C2C(=O)CC(c2ccccc2Cl)C3)cc1 (stereo unspecified) | 881
CC(C)NC(=O)N1CC(Oc2cccc(-c3nc(-c4ccccc4)no3)c2)C1 | 1010
COc1cccc(Cn2c(C(=O)N3CCC(C(=O)NC4CCCCCC4)CC3)cc3ccsc32)c1 | 1070
COCc1nc(NCc2ccc(OC)c(OC)c2)ncc1C(=O)O | 644
Cc1ccccc1-n1c(=O)c2sccc2n(Cc2nc(-c3ccc(Cl)cc3)no2)c1=O | 1090
CN1CCN(c2ccc(NC(=O)c3ccc(Br)cc3)c(C(=O)O)c2)CC1 | 653
O=c1c2sccc2n(Cc2nc(-c3ccc(Br)cc3)no2)c(=O)n1-c1cccc(F)c1 | 1070
Cn1ncc(N2CCC(C(=O)Nc3ccccc3)C2)cc1=O (stereo unspecified) | 648
Cc1ccc(NC(=O)c2ccccc2[N+](=O)[O-])c(C(=O)c2ccccc2)c1 | 955

Compound | RP-LC retention time [s]
COc1ccc(OC)c(-c2csc(-c3nnn(-c4ccc(F)cc4)c3N)n2)c1 | 1090
CC(C)c1noc(-c2cccnc2-n2cnc(C(=O)Nc3ccc(F)cc3)c2)n1 | 890
COc1ccc(CNC(=O)Cn2nc3c(N4CCCCCC4)nccn3c2=O)cc1 | 679
CCC(C)NC(=O)N1CCN(Cc2nc3cc(C(=O)N(C)C)ccc3o2)CC1 (stereo unspecified) | 587
CCCN1C(=O)C2CCC(=O)N2c2ccc(C(=O)NC(C)c3ccccc3)cc21 (stereo unspecified) | 801
CC(C)Cc1cc(-c2nn3c(-c4ccc(Br)cc4)nnc3s2)n[nH]1 | 1150
Cc1ccnc(N2CCC(C(=O)NCCc3ccco3)CC2)n1 | 640
CCCN(C)C(=O)C1CCN(c2cnn(Cc3ccccc3)c(=O)c2)CC1 | 728
CCN1CCN(Cc2nc(-c3ccc(N4CCSCC4)nc3)no2)CC1 | 604
CC(C)(C)n1nnnc1C1CC2(CCOCC2)C(=O)N1Cc1cc(F)ccc1F (stereo unspecified) | 793
O=S(=O)(NCC(O)c1ccc(C(F)(F)F)cc1)c1ccc2c(c1)OCCO2 (stereo unspecified) | 817
Cc1ccc(-n2c(C)c(C)c3c(=O)n(CC(=O)NC4CCCC4)cnc32)cc1 | 834
Cc1cc(C)cc(NC(=O)NCC(c2cccnc2)c2cn(C)c3ccccc23)c1 (stereo unspecified) | 711
CC(C)n1nc(CNC(=O)c2ccsc2)c2ccccc21 | 800
CC(C)C(NC(=O)Nc1ccc(F)cc1)C(=O)N1CCc2ccccc21 (stereo unspecified) | 960
Cc1ccccc1NC(=O)N1CCN(c2ccc(=O)n(-c3ccccc3)n2)CC1 | 744
O=C(NCCn1c(=O)n(Cc2ccccc2)c2cccnc21)c1cccnc1 | 650
Cc1ccc(CNC(=O)C2CCN(S(=O)(=O)c3ccc4c(c3)CCCC(=O)N4)CC2)o1 | 710
Cc1ccc(S(=O)(=O)N2CCOCC2)cc1-c1nnc(-c2ccc(F)cc2)o1 | 958
CC(=O)Nc1ccc(S(=O)(=O)Nc2ccc3c(c2)CCC(=O)N3C)cc1 | 604
COC(=O)C(Cc1ccccc1)NC(=O)N1CCCn2nc(-c3ccncc3)cc2C1 (stereo unspecified) | 616
O=C1COc2ccccc2N1Cc1nc(-c2cccc(C(F)(F)F)c2)no1 | 1100
